# Assay results published in patent US9772337B2, “Compositions and methods for functional gylcomics” (Emory University, priority 2010, dated 2017).
# Tested on: anti-GD1a antibody
# Test: BBG GSL-AOAB shotgun microarray binding assay with anti-GD1a antibody
# Conditions: fractions printed at 10 μM on NHS-slides
substance,measurement,value
Neu5Acα2-3Galβ1-3GalNAcβ1-4(Neu5Acα2-3)Galβ1-4Glcβ1-R [GD1a-AOAB],binding of anti-GD1a antibody to BBG GSL-AOAB fractions,primarily bound
